This note sets out measurements from patent US9938258B2 (Karyopharm Therapeutics Inc., priority 2012, dated 2018).

The subject of one assay is Z138 cells. The assay can be described thus: MTT cell proliferation assay, Z138. Format: cell-based. The following applies: Homo sapiens. Put shortly:
(§1)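 Read-out: MTT reduction to formazan, solubilised and measured at 490 nm after ~4 h with MTT; inhibition (%) = (1-(ODo/OD))×100 relative to negative control. Seeding was 5,000-10,000 cells/well with overnight attachment. Eight test concentrations spanned 1 nM-30 μM; mostly duplicate, mean ± SE.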
A general note: Tetrazolium dyes change colour on reduction, which living cells bring about.

The next assay has as its system MS751 cells. The experiment in a line: MTT cell proliferation assay, MS751. It is filed as cell-based, human. The following applies: Homo sapiens. Put shortly: as §1
Another assay deals with 3T3 cells. The assay can be described thus: MTT cell proliferation assay, 3T3. The settings on record: Mus musculus. It is filed as cell-based, mouse. In a few lines:
as §1

The mark [1] stands for this setting: Z-138, Z138 cells, approximately 64-72 hours incubation, read-out: MTT Assay IC50, Z138.
The mark [2] stands for this setting: MS751, MS751 cells, approximately 64-72 hours incubation, read-out: MTT Assay IC50, MS751.
Setting [3] is: NIH3T3, 3T3 cells, approximately 64-72 hours incubation, read-out: MTT Assay IC50, 3T3.
The mark [4] stands for this setting: Z-138, read-out: MTT Assay IC50, Z138.
[5] abbreviates: MS751, read-out: MTT Assay IC50, MS751.
The mark [6] stands for this setting: NIH3T3, read-out: MTT Assay IC50, 3T3.
The mark [7] stands for this setting: Z-138, Z138 cells, eight concentrations 1 nM to 30 μM, incubation approximately 64-72 hours, read-out: MTT Assay IC50, Z138.
Setting [8] is: MS751, MS751 cells, eight concentrations 1 nM to 30 μM, incubation approximately 64-72 hours, read-out: MTT Assay IC50, MS751.
[9] abbreviates: NIH3T3, 3T3 cells, eight concentrations 1 nM to 30 μM, incubation approximately 64-72 hours, read-out: MTT Assay IC50, 3T3.

Read-outs that look alike come from different tables or passages of the source.

Regarding `CC(=O)c1ccc(-c2cc(Cl)c3c(c2)CC(CNC(=O)/C=C(\C)c2cccnc2)O3)s1` (stereo not drawn) [Compound 283, (E)-N-((5-(5-acetylthiophen-2-yl)-7-chloro-2,3-dihydrobenzofuran-2-yl)methyl)-3-(pyridin-3-yl)but-2-enamide], the 50% inhibitory concentration (IC50) is 5 to 30 µM with Z138 cells (setting [1]), 5 to 30 µM in the assay with MS751 cells (setting [2]) and greater than 30 µM with 3T3 cells (setting [3]).

For the molecule `CC(=O)c1ccc(-c2cc(Cl)c3c(c2)CC(CNS(=O)(=O)/C=C/c2cccnc2)O3)s1` (stereo not drawn) [Compound 310, (E)-N-((5-(5-acetylthiophen-2-yl)-7-chloro-2,3-dihydrobenzofuran-2-yl)methyl)-2-(pyridine-3-yl) ethenesulphonamide], the concentration for half-maximal inhibition (IC50) is 5 to 30 µM in the assay with Z138 cells (setting [4]), greater than 30 µM in the assay on MS751 cells (setting [5]) and greater than 30 µM in the assay on 3T3 cells (setting [6]).

As to `O=C(/C=C/c1cccnc1)NCC1Cc2cc(-c3cccc(CO)c3)cc(Cl)c2O1` (stereo not drawn) [Compound 58, (E)-N-((7-chloro-5-(3-(hydroxymethyl)phenyl)-2,3-dihydrobenzofuran-2-yl)methyl)-3-(pyridin-3-yl)acrylamide], the IC50 in the assay with Z138 cells (setting [7]), with MS751 cells (setting [8]) and with 3T3 cells (setting [9]) was 0.1 to 5 µM throughout.

Turning to `CC(=O)c1ccc(-c2cccc3c2OC(CNC(=O)/C=C/c2ccc(N)nc2)C3)s1` (stereo not drawn) [Compound 305, (E)-N-((7-(5-Acetylthiophen-2-yl)-2,3-dihydrobenzofuran-2-yl)methyl)-3-(6-aminopyridin-3-yl)acrylamide], the IC50 is 0.1 to 5 µM in the assay with Z138 cells (setting [1]), 0.1 to 5 µM with MS751 cells (setting [2]) and 5 to 30 µM in the assay on 3T3 cells (setting [3]).

Take `CC(=O)c1ccc(-c2cc(C)c3c(c2)CC(CNC(=O)/C=C/c2cccnc2)O3)s1` (stereo not drawn) [Compound 138, (E)-N-((5-(5-acetylthiophen-2-yl)-7-methyl-2,3-dihydrobenzofuran-2-yl)methyl)-3-(pyridin-3-yl)acrylamide]: the IC50 in the assay on Z138 cells (setting [7]) is less than 0.1 µM; in the assay with MS751 cells (setting [8]), less than 0.1 µM; with 3T3 cells (setting [9]), 0.1 to 5 µM.

In the case of `CC(=O)c1ccc(-c2cc(Cl)c3c(c2)CC(CNC(=O)/C=C/c2ccc(O)nc2)O3)s1` (stereo not drawn) [Compound 311, (E)-N-((5-(5-acetylthiophen-2-yl)-7-chloro-2,3-dihydrobenzofuran-2-yl)methyl)-3-(6-hydroxypyridin-3-yl)acrylamide], the IC50 in the assay on Z138 cells (setting [4]), in the assay with MS751 cells (setting [5]) and in the assay with 3T3 cells (setting [6]) was greater than 30 µM each time.

For `Nc1ccc(/C=C/C(=O)NCC2Cc3cc(-c4cc(F)c(C(=O)N5CCOCC5)c(F)c4)cc(Cl)c3O2)cn1` (stereo not drawn) [Compound 332, (E)-3-(6-Aminopyridin-3-yl)-N-((7-chloro-5-(3,5-difluoro-4-(morpholine-4-carbonyl)phenyl)-2,3-dihydrobenzofuran-2-yl)methyl)acrylamide], the values for the 50% inhibitory concentration (IC50) in the assay with Z138 cells (setting [1]), in the assay with MS751 cells (setting [2]) and in the assay on 3T3 cells (setting [3]) were less than 0.1 µM, less than 0.1 µM and 0.1 to 5 µM, respectively.

`CC(=O)c1ccc(-c2cc(Cl)c3c(c2)CC(CNC(=O)/C=C/c2cccnc2)O3)o1` (stereo not drawn) [Compound 99, (E)-N-((5-(5-acetylfuran-2-yl)-7-chloro-2,3-dihydrobenzofuran-2-yl)methyl)-3-(pyridin-3-yl)acrylamide]: the half-inhibitory concentration (IC50) is less than 0.1 µM with Z138 cells (setting [7]), less than 0.1 µM in the assay with MS751 cells (setting [8]) and 0.1 to 5 µM with 3T3 cells (setting [9]).

In the case of `CNc1ccc(/C=C/C(=O)NCC2Cc3cc(-c4ccc(C(C)=O)s4)cc(Cl)c3O2)cn1` (stereo not drawn) [Compound 294, (E)-N-((5-(5-acetylthiophen-2-yl)-7-chloro-2,3-dihydrobenzofuran-2-yl)methyl)-3-(6-(methylamino)pyridin-3-yl)acrylamide], the 50% inhibitory concentration (IC50) in the assay with Z138 cells (setting [1]) was 0.1 to 5 µM; in the assay with MS751 cells (setting [2]), 0.1 to 5 µM; in the assay with 3T3 cells (setting [3]), 5 to 30 µM.

With `CC(=O)c1ccc(-c2cc(Cl)c3c(c2)CC(CNC(=O)/C=C/c2c(C)nn4c(C(F)(F)F)ccnc24)O3)s1` (stereo not drawn) [Compound 287, (E)-N-((5-(5-acetylthiophen-2-yl)-7-chloro-2,3-dihydrobenzofuran-2-yl)methyl)-3-(2-methyl-7-(trifluoromethyl)pyrazolo[1,5-a]pyrimidin-3-yl) acryl amide], the half-inhibitory concentration (IC50) with Z138 cells (setting [1]), in the assay with MS751 cells (setting [2]) and in the assay on 3T3 cells (setting [3]) was greater than 30 µM in each case.

The term IC50 denotes the concentration needed to halve the response being measured.
